Test results: PubChem BioAssay AID330 (DTP/NCI, 2004)
Several values for one entry are separate records, joined by “and”; a condition that tells them apart may be missing. Equal entries are not always repeated. Inconclusive results and toxic doses are left out. How the source made its calls: active means survival T/C of 150% or more; inactive means T/C below 125% in these data. Peptide text beside a SMILES is read from it.

System: P388 leukemia ip, CD2F1 mice, survival T/C
Test: NCI In Vivo Anticancer Drug Screen. Data for tumor model P388 Leukemia (intraperitoneal) in CD2F1 (CDF1) mice
Settings: endpoint: median survival time, higher = longer survival
Outline: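 Mice carrying the transplanted tumor received test compound or vehicle. Survival was recorded in each group, and the value is the treated-group measurement divided by that of the vehicle-treated control group.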

[1] = dose: 100.0 mg/kg/injection, schedule: Q01DX005 (ip), vehicle: saline with Tween-80
[2] = dose: 200.0 mg/kg/injection, schedule: Q01DX005 (ip), vehicle: saline with Tween-80
[3] = dose: 50.0 mg/kg/injection, schedule: Q01DX005 (ip), vehicle: saline with Tween-80
[4] = dose: 50.0 mg/kg/injection, schedule: Q01DX009 (ip), vehicle: saline with Tween-80
[5] = dose: 50.0 mg/kg/injection, schedule: Q01DX005 (ip), vehicle: saline
[6] = dose: 100.0 mg/kg/injection, schedule: Q01DX005 (ip), vehicle: saline
[7] = dose: 12.5 mg/kg/injection, schedule: Q01DX005 (ip), vehicle: saline with Tween-80
[8] = dose: 25.0 mg/kg/injection, schedule: Q01DX005 (ip), vehicle: saline with Tween-80
[9] = dose: 60.0 mg/kg/injection, schedule: Q01DX005 (ip), vehicle: saline with Tween-80
[10] = dose: 120.0 mg/kg/injection, schedule: Q01DX005 (ip), vehicle: saline with Tween-80
[11] = dose: 240.0 mg/kg/injection, schedule: Q01DX005 (ip), vehicle: saline with Tween-80
[12] = dose: 12.5 mg/kg/injection, schedule: Q01DX009 (ip), vehicle: saline with Tween-80
[13] = dose: 25.0 mg/kg/injection, schedule: Q01DX009 (ip), vehicle: saline with Tween-80
[14] = dose: 50.0 mg/kg/injection, schedule: Q01DX005 (ip), vehicle: Klucel (hydroxypropylcellulose) (HPC)
[15] = dose: 100.0 mg/kg/injection, schedule: Q01DX005 (ip), vehicle: Klucel (hydroxypropylcellulose) (HPC)
[16] = dose: 200.0 mg/kg/injection, schedule: Q01DX005 (ip), vehicle: Klucel (hydroxypropylcellulose) (HPC)
[17] = dose: 50.0 mg/kg/injection, schedule: Q01DX009 (ip), vehicle: saline

Measured: T/C

Nc1c(C(=O)NCc2ccccc2)c2nc3c(C(=O)NCc4ccccc4)cccc3oc-2cc1=O
inactive: dose: 1.56 mg/kg/injection, schedule: Q01DX005 (ip), vehicle: saline with Tween-80 99 % of control | dose: 3.12 mg/kg/injection, schedule: Q01DX005 (ip), vehicle: saline with Tween-80 89 % of control | dose: 6.25 mg/kg/injection, schedule: Q01DX005 (ip), vehicle: saline with Tween-80 89 % of control | [1] 86 % of control | [2] 100 % of control

N#CCc1ccc([N+](=O)[O-])cc1C(=O)O
inactive: [3] 104 % of control | [1] 104 % of control | [2] 101 % of control

COc1cc2c(=O)oc3c(OC)c(O)cc4c(=O)oc(c1OC)c2c34
inactive: dose: 2.0 mg/kg/injection, schedule: Q01DX005 (ip), vehicle: saline with Tween-80 97 % of control | dose: 4.0 mg/kg/injection, schedule: Q01DX005 (ip), vehicle: saline with Tween-80 100 % of control and 96 % of control and 98 % of control | dose: 8.0 mg/kg/injection, schedule: Q01DX005 (ip), vehicle: saline with Tween-80 92 % of control and 96 % of control and 98 % of control | dose: 16.0 mg/kg/injection, schedule: Q01DX005 (ip), vehicle: saline with Tween-80 87 % of control and 91 % of control | dose: 32.0 mg/kg/injection, schedule: Q01DX005 (ip), vehicle: saline with Tween-80 89 % of control

CCc1cc(CC)c(-c2ccco2)c(COC(=O)NC)c1
inactive: [4] 101 % of control | dose: 100.0 mg/kg/injection, schedule: Q01DX009 (ip), vehicle: saline with Tween-80 101 % of control | dose: 200.0 mg/kg/injection, schedule: Q01DX009 (ip), vehicle: saline with Tween-80 106 % of control

COc1ccc(CNCCCSC)cc1
inactive: [5] 105 % of control | [6] 110 % of control

C/C(=N\NC(=S)N1CC(C)OC(C)C1)c1cnccn1 (stereo not drawn)
inactive: [7] 107 % of control | [8] 100 % of control | [3] 101 % of control and 97 % of control

CC1(C2=CCCCC2)CCC(=O)NC1=O (stereo not drawn)
inactive: [9] 100 % of control | [10] 98 % of control | [11] 98 % of control

CN1CCCC1=NCCN=C1CCCN1C
inactive: [5] 117 % of control | [6] 99 % of control | dose: 200.0 mg/kg/injection, schedule: Q01DX005 (ip), vehicle: saline 98 % of control

NC(Cc1cnc[nH]1)C(=O)N1CCCC1C(=O)NC(CCC(=O)O)C(=O)O (stereo not drawn) (H-His-Pro-Glu-OH; configuration not given here)
inactive: dose: 7.5 mg/kg/injection, schedule: Q01DX009 (ip), vehicle: saline 102 % of control | dose: 15.0 mg/kg/injection, schedule: Q01DX009 (ip), vehicle: saline 100 % of control | dose: 30.0 mg/kg/injection, schedule: Q01DX009 (ip), vehicle: saline 109 % of control

O=C(O)CCCc1cc(I)c(N(CCCl)CCCl)c(I)c1
inactive: [12] 121 % of control | [13] 107 % of control | [4] 121 % of control

O=C(O)c1cc(F)cc(C(=O)O)c1
inactive: dose: 50.0 mg/kg/injection, schedule: Q04DX003 (ip), vehicle: suspension in saline 109 % of control | dose: 100.0 mg/kg/injection, schedule: Q04DX003 (ip), vehicle: suspension in saline 104 % of control | dose: 200.0 mg/kg/injection, schedule: Q04DX003 (ip), vehicle: suspension in saline 110 % of control

CC(/C=C1\C(=O)N(C)C(CC(C)C(Cl)(Cl)Cl)C(=O)N1C)C(Cl)(Cl)Cl (stereo not drawn)
inactive: dose: 4.75 mg/kg/injection, schedule: Q01DX005 (ip), vehicle: saline with Tween-80 101 % of control | dose: 9.5 mg/kg/injection, schedule: Q01DX005 (ip), vehicle: saline with Tween-80 100 % of control | dose: 19.0 mg/kg/injection, schedule: Q01DX005 (ip), vehicle: saline with Tween-80 95 % of control | dose: 38.0 mg/kg/injection, schedule: Q01DX005 (ip), vehicle: saline with Tween-80 101 % of control

O=[N+]([O-])c1ccc(Nc2ccccc2[N+](=O)[O-])cc1
inactive: dose: 7.5 mg/kg/injection, schedule: Q01DX009 (ip), vehicle: saline with Tween-80 94 % of control | dose: 15.0 mg/kg/injection, schedule: Q01DX009 (ip), vehicle: saline with Tween-80 94 % of control | dose: 30.0 mg/kg/injection, schedule: Q01DX009 (ip), vehicle: saline with Tween-80 91 % of control

COc1ccc(/C=C2/SC(=S)N(C(C)C)C2=O)cc1OC
inactive: dose: 6.25 mg/kg/injection, schedule: Q01DX009 (ip), vehicle: saline with Tween-80 88 % of control | [12] 90 % of control | [13] 94 % of control | [4] 88 % of control

C[Si](C)(C)CC[Si]12OCCN(CCO1)C1CCCCC1O2 (stereo not drawn)
inactive: [14] 93 % of control | [15] 101 % of control | [16] 97 % of control

c1ccc2c(c1)C1OC2c2cnccc21 (stereo not drawn)
inactive: dose: 100.0 mg/kg/injection, schedule: Q04DX002 (ip), vehicle: saline with Tween-80 95 % of control | dose: 200.0 mg/kg/injection, schedule: Q04DX002 (ip), vehicle: saline with Tween-80 96 % of control | dose: 400.0 mg/kg/injection, schedule: Q04DX002 (ip), vehicle: saline with Tween-80 93 % of control

NC(CS)C(=O)O (stereo not drawn)
inactive: [3] 101 % of control | [17] 115 % of control | [1] 107 % of control | dose: 100.0 mg/kg/injection, schedule: Q01DX009 (ip), vehicle: saline 110 % of control | [2] 110 % of control | dose: 200.0 mg/kg/injection, schedule: Q01DX009 (ip), vehicle: saline 109 % of control

CCCCCCCCCCC[CH2][Sn]([CH3])([CH3])[O]C(C)=O
inactive: dose: 12.5 mg/kg/injection, schedule: Q01DX009 (ip), vehicle: saline 99 % of control | dose: 25.0 mg/kg/injection, schedule: Q01DX009 (ip), vehicle: saline 99 % of control | [17] 94 % of control

CN1CC[CH2][Sn]([Cl])([Cl])[CH2]CC1
inactive: dose: 3.75 mg/kg/injection, schedule: Q01DX005 (ip), vehicle: saline with Tween-80 114 % of control | dose: 7.5 mg/kg/injection, schedule: Q01DX005 (ip), vehicle: saline with Tween-80 105 % of control

CC(=O)NS(=O)(=O)c1ccc(N/N=C(\C#N)C(N)=O)cc1
inactive: [14] 92 % of control | [15] 100 % of control

COc1ccc(C2c3cc(O)c(OC)cc3Oc3cc(OC)c(O)cc32)cc1
inactive: [14] 87 % of control | [15] 94 % of control | [16] 96 % of control

CCC1CN2CCc3cc(OC)c(OC)cc3C2CC12CO2 (stereo not drawn)
inactive: [12] 114 % of control | [13] 108 % of control | [4] 96 % of control

O=[C-]/C=C\[C-]=O.[C-]#[O+].[C-]#[O+].[C-]#[O+].[C-]#[O+].[Fe+2]
inactive: [7] 112 % of control | [8] 110 % of control | [3] 100 % of control

COc1cc(O)c2c(=O)c3c(O)c(OC4OC(COC5OC(C)C(OC(C)=O)C(O)C5O)C(O)C(O)C4O)ccc3oc2c1 (stereo not drawn)
inactive: dose: 1.5 mg/kg/injection, schedule: Q01DX009 (ip), vehicle: saline 100 % of control | dose: 3.0 mg/kg/injection, schedule: Q01DX009 (ip), vehicle: saline 100 % of control | dose: 6.0 mg/kg/injection, schedule: Q01DX009 (ip), vehicle: saline 107 % of control | dose: 12.0 mg/kg/injection, schedule: Q01DX009 (ip), vehicle: saline 103 % of control

O=C1NC(=O)/C(=C\c2ccccc2)C2=C1CCCC2
inactive: dose: 12.5 mg/kg/injection, schedule: Q01DX005 (ip), vehicle: Klucel (hydroxypropylcellulose) (HPC) 103 % of control | dose: 25.0 mg/kg/injection, schedule: Q01DX005 (ip), vehicle: Klucel (hydroxypropylcellulose) (HPC) 103 % of control | [14] 108 % of control

COc1cccc(C2SCC(=O)N2c2nncs2)c1 (stereo not drawn)
inactive: [9] 100 % of control | [10] 97 % of control | [11] 104 % of control

CN(CCC1(C)C(=O)CCc2ccccc21)Cc1ccccc1 (stereo not drawn)
inactive: [7] 102 % of control | [8] 96 % of control | [3] 100 % of control and 96 % of control
